We go through 14 molecules from ChEMBL document CHEMBL4321787, “Overview of Recent Strategic Advances in Medicinal Chemistry” (J Med Chem, 2019).

Where only a bound is given, the exact number is not on record here.

Data set [1] deals with T1, Envelope glycoprotein gp160 (Human immunodeficiency virus 1, UniProt Q6QLK5). Nature of the data set: Inhibition of HIV1 JRFL gp120 assessed as reduction in CD4/gp 120 complex formation incubated for 1 hr by ELISA.
Data set [2] in a line: Inhibition of Acinetobacter baumannii N-terminal ADC-7 cephalosporinase expressed in Escherichia coli BL21(DE3) incubated for 5 mins by UV-vis spectrophotometric method.
A short description of data set [3]: Inhibition of HIV1 reverse transcriptase p66/p51 K103N/Y181C mutant infected in human MT2 cells assessed as reduction in viral infection incubated for 5 days.
Data set [4] deals with Human immunodeficiency virus 1. Kind of data set: Antiviral activity against HIV1 infected in human MT2 cells incubated for 5 days. It is filed as functional, organism-based. The conditions noted are these: Human immunodeficiency virus 1, MT2, 120 h.
Data set [5] is described as follows: Cytotoxicity against human MT2 cells incubated for 5 days. It is filed as cell-based.
The target of another data set is Protease (Human immunodeficiency virus 1, UniProt Q9YQ12). Kind of data set: Inhibition of HIV1 protease using RE(Edans)SGIFLETSK(Dabcyl)R as substrate by fluorescence method.
Protease, sequence (Q9YQ12 whole entry): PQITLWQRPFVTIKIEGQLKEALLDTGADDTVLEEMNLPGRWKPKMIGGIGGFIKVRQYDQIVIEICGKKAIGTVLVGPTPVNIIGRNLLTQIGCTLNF
The next data set has as its target Histone deacetylase. Nature of the data set: Inhibition of HDAC (unknown origin) using Fluoro-Substrate Peptide as substrate by fluorescence assay. It is filed as protein assay, Homo sapiens.
Data set [6] has as its target T1, Envelope glycoprotein gp160. Nature of the data set: Inhibition of HIV1 gp120 assessed as increase in anti-DNP binding to immobilized HIV-1 gp120 incubated for 1 hr by ELISA.
For data set [7], the system named is Human immunodeficiency virus 1. Nature of the data set: Antiviral activity against HIV1 3B infected in human MT2 cells incubated for 5 days by MTT assay. It is filed as functional, organism-based. As to conditions: Human immunodeficiency virus 1, 3B, MT2, 120 h.
For another data set, the target named is Histone deacetylase 3 (Homo sapiens, UniProt O15379). Kind of data set: Inhibition of HDAC3 (unknown origin).
Histone deacetylase 3, sequence (O15379 whole entry): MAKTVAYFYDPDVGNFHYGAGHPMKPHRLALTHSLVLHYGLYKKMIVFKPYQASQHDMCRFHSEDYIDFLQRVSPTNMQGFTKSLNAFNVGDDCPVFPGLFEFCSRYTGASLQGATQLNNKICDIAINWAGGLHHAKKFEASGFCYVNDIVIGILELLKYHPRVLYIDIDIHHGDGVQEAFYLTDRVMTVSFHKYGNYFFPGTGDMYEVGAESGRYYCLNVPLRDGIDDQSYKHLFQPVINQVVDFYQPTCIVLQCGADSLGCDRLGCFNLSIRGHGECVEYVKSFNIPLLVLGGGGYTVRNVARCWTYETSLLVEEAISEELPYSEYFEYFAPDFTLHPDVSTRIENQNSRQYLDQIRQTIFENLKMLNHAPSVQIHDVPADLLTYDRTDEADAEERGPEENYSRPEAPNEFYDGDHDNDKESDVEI

T1 sequence (Q6QLK5 whole entry): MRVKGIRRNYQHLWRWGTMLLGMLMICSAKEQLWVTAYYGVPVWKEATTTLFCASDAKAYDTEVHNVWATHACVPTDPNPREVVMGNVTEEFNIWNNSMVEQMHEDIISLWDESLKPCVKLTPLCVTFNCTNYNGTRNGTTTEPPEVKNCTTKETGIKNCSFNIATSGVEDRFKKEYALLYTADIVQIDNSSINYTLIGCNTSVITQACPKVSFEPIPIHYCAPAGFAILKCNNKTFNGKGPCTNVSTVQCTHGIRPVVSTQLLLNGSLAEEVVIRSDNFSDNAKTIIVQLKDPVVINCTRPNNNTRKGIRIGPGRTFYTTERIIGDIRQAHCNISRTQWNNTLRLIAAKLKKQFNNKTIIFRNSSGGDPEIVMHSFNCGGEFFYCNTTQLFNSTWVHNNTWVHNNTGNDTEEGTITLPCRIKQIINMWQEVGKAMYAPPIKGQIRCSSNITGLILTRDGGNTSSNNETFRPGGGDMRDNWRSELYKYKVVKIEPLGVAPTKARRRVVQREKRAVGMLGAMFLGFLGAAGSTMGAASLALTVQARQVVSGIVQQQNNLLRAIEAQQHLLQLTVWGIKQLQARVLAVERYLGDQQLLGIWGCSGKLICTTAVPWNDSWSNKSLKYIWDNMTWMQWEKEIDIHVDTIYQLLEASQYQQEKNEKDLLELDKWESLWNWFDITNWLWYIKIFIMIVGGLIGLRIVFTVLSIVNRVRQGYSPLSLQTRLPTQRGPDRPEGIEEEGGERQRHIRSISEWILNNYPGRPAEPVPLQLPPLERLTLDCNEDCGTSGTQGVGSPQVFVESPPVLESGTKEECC

As to `COc1ccnc2[nH]cc(C(=O)C(=O)N3CCN(C(=O)c4ccccc4)C[C@H]3C)c12`, in data set [1], the IC50 was 8700 nM. `O=C(Cc1cccs1)N[C@@H](Cn1cc(C(=O)O)nn1)B(O)O` registered a Ki in [2] of 44 nM.

For the molecule `Cc1c(Oc2ccccc2OCCn2ccc(=O)[nH]c2=O)cc(Cl)c2ccc(C#N)cc12`, the results for the EC50 in [3] and in data set [4] were 280 nM and 6.2 nM, respectively. Also, the CC50 at 120 h in [5] was over 100000 nM.

On to `CC(C)CN(C[C@@H](O)[C@H](Cc1ccccc1)NC(=O)O[C@H]1CO[C@H]2OCC[C@H]21)S(=O)(=O)c1ccc(B(O)O)cc1`, for which, on Protease, the Ki is 0.0005 nM. Turning to `Nc1ccccc1NC(=O)c1ccc(-c2cn(CCc3cccc([N+](=O)[O-])c3)nn2)s1`, the IC50 on Histone deacetylase was over 100000 nM. `C[C@@H]1CN(C(=O)c2ccccc2)CCN1C(=O)C(=O)c1c[nH]c2nccc(OCCOCCOCCOCCOCCOCCn3cc(COCCOCCOCCOCCNc4ccc([N+](=O)[O-])cc4[N+](=O)[O-])nn3)c12`: in data set [6], the EC50 was 37900 nM. For the same molecule, the IC50 in [1] was found to be 19900 nM. `Cc1c(Oc2ccccc2OCCn2ccc(=O)[nH]c2=O)cc(N(C)C(=O)CF)c2ccc(C#N)cc12` displayed a concentration for a half-maximal effect (EC50) in data set [4] of 890 nM. In data set [5], this molecule yielded a CC50 at 120 h of over 100000 nM. In the case of `Nc1ccccc1NC(=O)c1ccc(-c2cn(CCc3ccsc3)nn2)cc1`, the IC50 at Histone deacetylase is over 100000 nM. The molecule `C=CC(=O)N(C)c1cc(Oc2ccccc2OCCn2ccc(=O)[nH]c2=O)c(C)c2cc(C#N)ccc12` displayed an EC50 in [4] of 560 nM. The molecule also came in with a CC50 at 120 h in [5] of 32000 nM. In the case of `COc1ccc(-c2ccc(CNC(=O)COCCOCCOCCOCCn3cc(COCCOCCOCCOCCNc4ccc([N+](=O)[O-])cc4[N+](=O)[O-])nn3)o2)c2[nH]cc(C(=O)C(=O)N3CCN(C(=O)c4ccccc4)CC3)c12`, the EC50 in [6] was 1120 nM. The IC50 came to 330 nM in data set [1] and 13 nM in data set [7]. In [4], `C=CC(=O)Nc1cc(Oc2ccccc2OCCn2ccc(=O)[nH]c2=O)c(C)c2cc(C#N)ccc12` yielded an EC50 of 1600 nM. Besides, the CC50 at 120 h in data set [5] was 11000 nM. `O=C(NO)c1cccc(-c2cn(CSc3ccccc3)nn2)c1` had an IC50 against Histone deacetylase 3 of 68000 nM. For the molecule `COc1ccc(-c2ccco2)c2[nH]cc(C(=O)C(=O)N3CCN(C(=O)c4ccccc4)CC3)c12`, the half-inhibitory concentration (IC50) in data set [1] came to 130 nM; in data set [7], 0.064 nM. In the case of `Cc1c(Oc2ccccc2OCCn2ccc(=O)[nH]c2=O)cc(N(C)C(=O)CCl)c2ccc(C#N)cc12`, the EC50 in data set [4] came out at 580 nM. In data set [5], this molecule returned a CC50 at 120 h of 32000 nM.
